Reference: patent US20090156577A1, “7-AMINO ALKYLIDENYL-HETEROCYCLIC QUINOLONES AND NAPHTHYRIDONES” (priority 2004, published 2009)
Values after ≈ are worked out from the molar mass of the structure shown. Read-outs that look alike come from different tables or passages of the source.

Test system: pathogenic bacteria
Assay: MIC by microdilution broth method (NCCLS M7-A4), in vitro antibacterial activity
Type: cell-based
Description: Minimal inhibitory concentration (MIC) has been an indicator of in vitro antibacterial activity widely used in the art. The in vitro antimicrobial activity of the compounds was determined by the microdilution broth method following the test method from the National Committee for Clinical Laboratory Standards (NCCLS). This method is described in the NCCLS Document M7-A4, Vol. 17, No. 2, “Methods for Dilution Antimicrobial Susceptibility Test for Bacteria that Grow Aerobically—Fourth Edition”, which is incorporated herein by reference.
In this method two-fold serial dilutions of drug in cation adjusted Mueller-Hinton broth are added to wells in microdilution trays. The test organisms are prepared by adjusting the turbidity of actively growing broth cultures so that the final concentration of test organism after it is added to the wells is approximately 5×10^4 CFU/well.
Following inoculation of the microdilution trays, the trays are incubated at 35° C. for 16-20 hours and then read. […] The amount of growth in the wells containing the test compound is compared with the amount of growth in the growth-control wells (no test compound) used in each tray. As set forth in Table 5, compounds of the present invention were tested against a variety of pathogenic bacteria resulting in a range of activities depending on the organism tested.

[1] = Staphylococcus aureus, Organism A: Staphylococcus aureus OC4172, read-out: MIC
[2] = Streptococcus pneumoniae, ATCC49619, Organism E: Streptococcus pneumoniae ATCC 49619, read-out: MIC
[3] = Streptococcus pneumoniae, Organism C: fluoroquinolone-resistant clinical isolate of Streptococcus pneumoniae (QRDR amino acid substitutions)
[4] = Streptococcus pneumoniae, Organism D: fluoroquinolone-resistant clinical isolate of Streptococcus pneumoniae (QRDR amino acid substitutions)
[5] = Streptococcus pneumoniae, Organism B: fluoroquinolone-resistant clinical isolate of Streptococcus pneumoniae (QRDR amino acid substitutions)

SMILES	MIC [1] [µg/mL]	MIC [2] [µg/mL]	MIC [3] [µg/mL]	MIC [4] [µg/mL]	MIC [5] [µg/mL]	MIC (Organism A: Staphylococcus aureus OC4172) [µg/mL]	MIC (Organism C: fluoroquinolone-resistant clinical isolate of Streptococcus pneumoniae (QRDR amino acid substitutions)) [µg/mL]	MIC (Organism E: Streptococcus pneumoniae ATCC 49619) [µg/mL]
O=C(O)c1cn(C2CC2)c2nc(N3CCC(=C(Cl)CN4CCCCC4)CC3)c(F)cc2c1=O [Compound 181, 7-[4-(1-Chloro-2-piperidin-1-yl-ethylidene)-piperidin-1-yl]-1-cyclopropyl-6-fluoro-4-oxo-1,4-dihydro-[1,8]naphthyridine-3-carboxylic acid]	1 (≈ 2.11 µM)	2 (≈ 4.21 µM)	> 16	8 (≈ 16.8 µM)	–	–	–	–
CN(C)CC(F)=C1CCN(c2nc3c(cc2F)c(=O)c(C(=O)O)cn3C2CC2)CC1 [Compound 182, 1-Cyclopropyl-7-[4-(2-dimethylamino-1-fluoro-ethylidene)-piperidin-1-yl]-6-fluoro-4-oxo-1,4-dihydro-[1,8]naphthyridine-3-carboxylic acid]	0.06 (≈ 0.143 µM)	0.25 (≈ 0.597 µM)	1 (≈ 2.39 µM)	2 (≈ 4.78 µM)	–	–	–	–
NCC(F)=C1CN(c2nc3c(cc2F)c(=O)c(C(=O)O)cn3-c2ccc(F)cc2F)C1 [Compound 183, 7-[3-(2-Amino-1-fluoro-ethylidene)-azetidin-1-yl]-1-(2,4-difluoro-phenyl)-6-fluoro-4-oxo-1,4-dihydro-[1,8]naphthyridine-3-carboxylic acid]	0.12 (≈ 0.276 µM)	0.25 (≈ 0.576 µM)	2 (≈ 4.6 µM)	2 (≈ 4.6 µM)	–	–	–	–
O=C(O)c1cn(-c2ccc(F)cc2F)c2nc(N3CCC(=CCO)CC3)c(F)cc2c1=O [Compound 185, 1-(2,4-Difluoro-phenyl)-6-fluoro-7-[4-(2-hydroxy-ethylidene)-piperidin-1-yl]-4-oxo-1,4-dihydro-[1,8]naphthyridine-3-carboxylic acid]	0.12 (≈ 0.269 µM)	1 (≈ 2.25 µM)	16 (≈ 35.9 µM)	–	16 (≈ 35.9 µM)	–	–	–
COc1c(N2CC(=C(Cl)CN)C2)c(F)cc2c(=O)c(C(=O)O)cn(C3CC3)c12 [Compound 189, 7-[3-(2-Amino-1-chloro-ethylidene)-azetidin-1-yl]-1-cyclopropyl-6-fluoro-8-methoxy-4-oxo-1,4-dihydro-quinoline-3-carboxylic acid]	< 0.12	2 (≈ 4.9 µM)	2 (≈ 4.9 µM)	4 (≈ 9.81 µM)	4 (≈ 9.81 µM)	–	–	–
COc1c(N2CCC(=C(Cl)CN(C)C)CC2)c(F)cc2c(=O)c(C(=O)O)cn(C3CC3)c12 [Compound 191, 7-[4-(1-Chloro-2-dimethylamino-ethylidene)-piperidin-1-yl]-1-cyclopropyl-6-fluoro-8-methoxy-4-oxo-1,4-dihydro-quinoline-3-carboxylic acid]	0.25 (≈ 0.539 µM)	0.5 (≈ 1.08 µM)	8 (≈ 17.2 µM)	2 (≈ 4.31 µM)	8 (≈ 17.2 µM)	–	–	–
COc1c(N2CCC(=C(Cl)CN3CCCC3)CC2)c(F)cc2c(=O)c(C(=O)O)cn(C3CC3)c12 [Compound 193, 7-[4-(1-Chloro-2-pyrrolidin-1-yl-ethylidene)-piperidin-1-yl]-1-cyclopropyl-6-fluoro-8-methoxy-4-oxo-1,4-dihydro-quinoline-3-carboxylic acid]	0.12 (≈ 0.245 µM)	0.5 (≈ 1.02 µM)	8 (≈ 16.3 µM)	2 (≈ 4.08 µM)	8 (≈ 16.3 µM)	–	–	–
COc1c(N2CCC(=C(Cl)CN3CCCCC3)CC2)c(F)cc2c(=O)c(C(=O)O)cn(C3CC3)c12 [Compound 194, 7-[4-(1-Chloro-2-piperidin-1-yl-ethylidene)-piperidin-1-yl]-1-cyclopropyl-6-fluoro-8-methoxy-4-oxo-1,4-dihydro-quinoline-3-carboxylic acid]	0.12 (≈ 0.238 µM)	0.5 (≈ 0.992 µM)	4 (≈ 7.94 µM)	1 (≈ 1.98 µM)	2 (≈ 3.97 µM)	–	–	–
COc1c(N2CCC(=C(Cl)CN3CCOCC3)CC2)c(F)cc2c(=O)c(C(=O)O)cn(C3CC3)c12 [Compound 195, 7-[4-(1-Chloro-2-morpholin-4-yl-ethylidene)-piperidin-1-yl]-1-cyclopropyl-6-fluoro-8-methoxy-4-oxo-1,4-dihydro-quinoline-3-carboxylic acid]	0.12 (≈ 0.237 µM)	1 (≈ 1.98 µM)	8 (≈ 15.8 µM)	2 (≈ 3.95 µM)	8 (≈ 15.8 µM)	–	–	–
COc1c(N2CCC(=C(Cl)CNC(C)C)CC2)c(F)cc2c(=O)c(C(=O)O)cn(C3CC3)c12 [Compound 196, 7-[4-(1-Chloro-2-isopropylamino-ethylidene)-piperidin-1-yl]-1-cyclopropyl-6-fluoro-8-methoxy-4-oxo-1,4-dihydro-quinoline-3-carboxylic acid]	0.12 (≈ 0.251 µM)	0.5 (≈ 1.05 µM)	4 (≈ 8.37 µM)	2 (≈ 4.18 µM)	–	–	–	–
COc1c(N2CCC(=C(F)CN(C)C)CC2)c(F)cc2c(=O)c(C(=O)O)cn(C3CC3)c12 [Compound 199, 1-Cyclopropyl-7-[4-(2-dimethylamino-1-fluoro-ethylidene)-piperidin-1-yl]-6-fluoro-8-methoxy-4-oxo-1,4-dihydro-quinoline-3-carboxylic acid]	0.06 (≈ 0.134 µM)	0.25 (≈ 0.559 µM)	2 (≈ 4.47 µM)	1 (≈ 2.23 µM)	1 (≈ 2.23 µM)	–	–	–
COc1c(N2CCC(=C(CN)CCO)CC2)c(F)cc2c(=O)c(C(=O)O)cn(C3CC3)c12 [Compound 201, 7-[4-(1-Aminomethyl-3-hydroxy-propylidene)-piperidin-1-yl]-1-cyclopropyl-6-fluoro-8-methoxy-4-oxo-1,4-dihydro-quinoline-3-carboxylic acid]	0.12 (≈ 0.269 µM)	0.5 (≈ 1.12 µM)	2 (≈ 4.49 µM)	8 (≈ 18 µM)	–	–	–	–
C=C(C)CC(CN)=C1CCN(c2c(F)cc3c(=O)c(C(=O)O)cn(C4CC4)c3c2OC)CC1 [Compound 202, 7-[4-(1-Aminomethyl-3-methyl-but-3-enylidene)-piperidin-1-yl]-1-cyclopropyl-6-fluoro-8-methoxy-4-oxo-1,4-dihydro-quinoline-3-carboxylic acid]	0.5 (≈ 1.1 µM)	2 (≈ 4.39 µM)	16 (≈ 35.1 µM)	8 (≈ 17.6 µM)	16 (≈ 35.1 µM)	–	–	–
C=CCC(CN)=C1CCN(c2c(F)cc3c(=O)c(C(=O)O)cn(C4CC4)c3c2OC)CC1 [Compound 203, 7-[4-(1-Aminomethyl-but-3-enylidene)-piperidin-1-yl]-1-cyclopropyl-6-fluoro-8-methoxy-4-oxo-1,4-dihydro-quinoline-3-carboxylic acid]	0.06 (≈ 0.136 µM)	0.12 (≈ 0.272 µM)	1 (≈ 2.26 µM)	0.5 (≈ 1.13 µM)	0.06 (≈ 0.136 µM)	–	–	–
COc1c(N2CCC(=C(Br)CN)CC2)c(F)cc2c(=O)c(C(=O)O)cn(C3CC3)c12 [Compound 204, 7-[4-(2-Amino-1-bromo-ethylidene)-piperidin-1-yl]-1-cyclopropyl-6-fluoro-8-methoxy-4-oxo-1,4-dihydro-quinoline-3-carboxylic acid]	0.25 (≈ 0.52 µM)	0.12 (≈ 0.25 µM)	0.5 (≈ 1.04 µM)	0.5 (≈ 1.04 µM)	0.5 (≈ 1.04 µM)	–	–	–
NCC(Cl)=C1CN(c2c(F)cc3c(=O)c(C(=O)O)cn(C4CC4)c3c2OC(F)F)C1 [Compound 205, 7-[3-(2-Amino-1-chloro-ethylidene)-azetidin-1-yl]-1-cyclopropyl-8-difluoromethoxy-6-fluoro-4-oxo-1,4-dihydro-quinoline-3-carboxylic acid]	0.25 (≈ 0.563 µM)	0.5 (≈ 1.13 µM)	8 (≈ 18 µM)	4 (≈ 9.01 µM)	2 (≈ 4.51 µM)	–	–	–
CN(CC(Cl)=C1CCN(c2c(F)cc3c(=O)c(C(=O)O)cn(C4CC4)c3c2OC(F)F)CC1)Cc1ccccc1 [Compound 206, 7-{4-[2-(Benzyl-methyl-amino)-1-chloro-ethylidene]-piperidin-1-yl}-1-cyclopropyl-8-difluoromethoxy-6-fluoro-4-oxo-1,4-dihydro-quinoline-3-carboxylic acid]	1 (≈ 1.74 µM)	4 (≈ 6.94 µM)	4 (≈ 6.94 µM)	4 (≈ 6.94 µM)	–	–	–	–
CN(CC(F)=C1CCN(c2c(F)cc3c(=O)c(C(=O)O)cn(C4CC4)c3c2OC(F)F)CC1)Cc1ccccc1 [Compound 207, 7-{4-[2-(Benzyl-methyl-amino)-1-fluoro-ethylidene]-piperidin-1-yl}-1-cyclopropyl-8-difluoromethoxy-6-fluoro-4-oxo-1,4-dihydro-quinoline-3-carboxylic acid]	1 (≈ 1.79 µM)	4 (≈ 7.15 µM)	8 (≈ 14.3 µM)	2 (≈ 3.57 µM)	8 (≈ 14.3 µM)	–	–	–
NCC(F)=C1CCN(c2cc3c(cc2F)c(=O)c(C(=O)O)cn3C2CC2)CC1 [Compound 208, 7-[4-(2-Amino-1-fluoro-ethylidene)-piperidin-1-yl]-1-cyclopropyl-6-fluoro-4-oxo-1,4-dihydro-quinoline-3-carboxylic acid]	–	–	–	0.25 (≈ 0.642 µM)	0.25 (≈ 0.642 µM)	0.06 (≈ 0.154 µM)	2 (≈ 5.14 µM)	0.25 (≈ 0.642 µM)
COc1c(N2CC(=C(Cl)CN)C2)ccc2c(=O)c(C(=O)O)cn(C3CC3)c12 [Compound 209, 7-[3-(2-Amino-1-chloro-ethylidene)-azetidin-1-yl]-1-cyclopropyl-8-methoxy-4-oxo-1,4-dihydro-quinoline-3-carboxylic acid]	0.12 (≈ 0.308 µM)	2 (≈ 5.13 µM)	8 (≈ 20.5 µM)	16 (≈ 41 µM)	–	–	–	–
CC1COc2c(N3CCC(=CCN)C(O)C3)c(F)cc3c(=O)c(C(=O)O)cn1c23 (stereo not drawn) [Compound 210, 9-[4-(2-Amino-ethylidene)-3-hydroxy-piperidin-1-yl]-8-fluoro-3-methyl-6-oxo-2,3-dihydro-6H-1-oxa-3a-aza-phenalene-5-carboxylic acid]	8 (≈ 19.8 µM)	> 16	16 (≈ 39.7 µM)	–	16 (≈ 39.7 µM)	–	–	–
